Data: publication PMC6788984, “High-potency ligands for DREADD imaging and activation in rodents and monkeys” (Nature Communications, 2019)
“And” between values parts separate entries of the source, which are not always exact repeats. Equal values may be shown once.

Columns and labels:
[1] = biological target: T1, hM4Di (Homo sapiens, UniProt P08173, A203G/Y113C); test: Autoradiography: direct binding of [3H]clozapine, [3H]C21, [3H]C13 in monkey brain sections expressing hM4Di; parameters: expressed in transfected cells; host or cells: rhesus monkey (Macaca mulatta) right amygdala, lentivirus-transduced neurons; species or system rhesus monkey (Macaca mulatta); unit not given here; conditions: Fig. 1 panel H; [3H]-labelled ligand; individual values; listed as CLZ
T1 sequence (P08173 1-479 Y113C/A203G): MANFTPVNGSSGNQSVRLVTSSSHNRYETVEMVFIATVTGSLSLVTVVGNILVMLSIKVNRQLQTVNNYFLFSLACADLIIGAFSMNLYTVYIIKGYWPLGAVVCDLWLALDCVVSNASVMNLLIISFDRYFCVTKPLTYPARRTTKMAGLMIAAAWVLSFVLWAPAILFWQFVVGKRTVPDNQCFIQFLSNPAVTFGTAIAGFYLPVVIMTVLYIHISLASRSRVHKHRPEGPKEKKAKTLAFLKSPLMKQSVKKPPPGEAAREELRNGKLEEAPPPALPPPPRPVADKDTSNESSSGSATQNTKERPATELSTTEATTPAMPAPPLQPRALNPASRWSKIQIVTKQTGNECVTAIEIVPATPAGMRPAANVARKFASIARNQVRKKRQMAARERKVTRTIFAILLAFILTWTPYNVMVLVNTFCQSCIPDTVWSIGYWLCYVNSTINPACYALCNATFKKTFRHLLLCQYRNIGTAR
Source text: Flash frozen tissue (both rodents and the monkey) was sectioned (20 µm) on a cryostat (Leica, Germany) and thaw mounted onto ethanol-washed glass slides. […] Slides were air dried and placed in a Hypercassette™ (Amersham Biosciences) and covered with a BAS-TR2025 Storage Phosphor Screen (FujiFilm, Japan). The slides were exposed to the screen for 5–7 days and imaged using a phosphor imager (Typhoon FLA 7000; GE Healthcare).

[2] = test system: WT mice; test: [18F]FDG PET metabolic mapping in WT mice; type: in vivo, mouse; conditions: 0.1 mg/kg
Description: Mice (D1-hM3Dq, D1-hM4Di or WT littermates, see above) were habituated to experimenter handling and fasted 16 h before the experiment. On the day of the experiment, mice received an IP injection of vehicle (1 ml kg^−1) and were placed back into their home cages. Ten minutes later, mice were injected (IP) with 11 MBq of 2-deoxy-2-[^18F]fluoro-D-glucose (FDG, Cardinal Health) and placed back into their home cages. After 30 min, mice were anesthetized with 1.5% isoflurane, placed on a custom-made bed of a nanoScan small animal PET/CT scanner (Mediso Medical Imaging Systems) and scanned for 20 min on a static acquisition protocol, followed by a CT scan. […] Voxel-based repeated measures with Student’s t test comparing baseline to drug were performed, and the resulting parametric images were filtered for statistically significant (p < 0.05) clusters larger than 100 contiguous voxels. All statistical parametric mapping analyses were performed using Matlab R2016 (Mathworks) and SPM12 (University College London).

[3] = test system: untransfected HEK-293 cells; test: Negative controls of the functional assays: HEK-293 cells without DREADD; type: cell-based, human
Description: BRET assays were performed to detect receptor ligand-induced Gαo1 protein activation. […] Forty-eight hour after transfection cells were harvested, washed and resuspended in phosphate-buffered saline (PBS). Approximately, 200,000 cells/well were distributed in 96-well plates, and 5 µM Coelenterazine H (substrate for luciferase) was added to each well. Five minutes after addition of Coelenterazine H, ligands were added to each well. The fluorescence of the acceptor was quantified (excitation at 500 nm and emission at 540 nm for 1-s recordings) in a PheraStar FSX plate reader (BMG Labtech) to confirm the constant expression levels across experiments. In parallel, the BRET signal from the same batch of cells was determined as the ratio of the light emitted by mVenus (510–540 nm) over that emitted by RLuc (485 nm). Results were calculated for the BRET change (BRET ratio for the corresponding drug minus BRET ratio in the absence of the drug) 5 min after the addition of the ligands.
Intracellular Ca^2+ concentration was monitored using the fluorescent Ca^2+ biosensor GCaMP6f. HEK-293 cells were transfected with 7 µg/dish of the cDNA encoding for hM3Dq (Addgene #89149) or hM4Di (Addgene #89150) and 7 µg/dish of GCaMP6. Forty-eight hours after transfection, cells were harvested, washed, resuspended in Mg^2+-free Locke’s buffer pH 7.4 (154 mM NaCl, 5.6 mM KCl, 3.6 mM NaHCO3, 2.3 mM CaCl2, and 5 mM HEPES) containing 5.6 mM of glucose and approximately 200,000 cells/well were distributed in black 96-well plates. Increasing concentrations of the indicated compound were added to the cells and fluorescence intensity (excitation at 480 nm, emission at 530 nm) was measured at 18-s intervals during 250 s using a PHERAstar FSX (BMG Labtech). The net change in intracellular Ca^2+ concentration was expressed as F − F0 where F is the fluorescence at a given concentration of ligand and F0 is the average of the baseline values (fluorescence values of buffer-treated wells).

[4] = test system: mu, kappa, and delta opioid receptors; test: Binding and enzyme target profile screen (Eurofins); conditions: competitive binding screen, 10 uM
Description: These experiments were performed by an outside vendor (Eurofins, France). […] In each experiment, the respective reference compound was tested concurrently with the test compound to assess the assay reliability. […] Following incubation, the samples were filtered rapidly under vacuum through glass fiber filters presoaked in a buffer and rinsed several times with an ice-cold buffer using a 48-sample or 96-sample cell harvester. The filters were counted for radioactivity in a scintillation counter using a scintillation cocktail.

[5] = biological target: T2, P-gp (Homo sapiens, UniProt P08183); test: P-glycoprotein (P-gp) substrate assay in Caco-2 cells with and without verapamil; type: in vitro ADME; conditions: Caco-2, efflux ratio with/without verapamil
T2 construct: host or cells: Caco-2
Description: These experiments were performed by an outside vendor (Eurofins, France). C21 was tested in P-gp substrate assessment assays at 10 µM. The A to B and B to A permeability was measured in Caco-2 cells in the presence and absence of verapamil, a P-gp inhibitor. Efflux ratios (E) were calculated based on the apparent B–A and A–B permeability with and without verapamil. In each experiment, the respective reference compound was tested concurrently with the test compound to assess the assay reliability. Fluorescein was used as the cell monolayer integrity marker. Fluorescein permeability assessment (in the A–B direction at pH 7.4 on both sides) was performed after the permeability assay for the test compound.

[6] = biological target: T1, hM4Di; test: [35S]GTPgammaS autoradiography in rat brain sections expressing hM4Di; type: biochemical; parameters: expressed in transfected cells; host or cells: rat right motor cortex, AAV-transduced neurons; conditions: 10 nM
Description: Sections were encircled with a hydrophobic membrane using a PAP pen (Sigma-Aldrich). Preincubation buffer was pipetted onto each slide and allowed to incubate for 20 min (50 mM Tris-HCl, 1 mM EDTA, 5 mM MgCl2 and 100 mM NaCl). The preincubation buffer was removed via aspiration and each slide was loaded with GDP in the presence of DPCPX and allowed to incubate of 60 min (Preincubation buffer, 2 mM GDP, 1 μM DPCPX, Millipore water). […] The [^35S]GTPγS cocktail was removed via aspiration and slides were washed in ice-cold washing buffer (50 mM Tris-HCl, 5 mM MgCl2, pH 7.4) for 5 min (2×) followed by a 30 s dip in ice-cold deionized water. Hydrophobic membrane was removed with a cotton swab and xylene and slides were placed into a […] covered by a BAS-SR2040 phosphor screen (FujiFilm; GE Healthcare). The slides were exposed to the phosphor screen for 3-5 days and imaged using a phosphor imager (Typhoon FLA 7000; GE Healthcare).

[7] = biological target: T1, hM4Di; test: [18F]JHU37107 PET in rats expressing hM3Dq or hM4Di in the right motor cortex; type: in vivo, rat; parameters: expressed in transfected cells; host or cells: rat right motor cortex, AAV-transduced neurons; conditions: unilateral hM4Di in right motor cortex
Description: [^18F]JHU37107 was prepared via the no-carrier-added ^18F-fluorination using an FDG Nuclear Interface module (Muenster, Germany). Briefly, 4 mg precursor (8-chloro-11-(4-ethylpiperazin-1-yl)-5H-dibenzo[b,e][1,4]diazepin-2-ol) and 8 mg tris(acetonitrile)cyclopentadienylruthenium(II)hexafluorophosphate (STREM, Boston, MA) were dissolved in ethanol (0.3 mL), the solution was heated at 85 °C for 25 min and evaporated to dryness under a stream of argon gas. The residue was dissolved in DMSO (0.5 mL) and acetonitrile (0.5 mL) and the solution was added to a dry complex of [^18F]fluoride and 9 mg 1,3-bis(2,6-di-i-propylphenyl)-2-chloroimidazolium chloride (STREM). The reaction mixture was heated at 130 °C for 30 min, diluted with mixture of 0.5 mL acetonitrile, 0.5 mL water and 0.03 mL TFA and injected onto a semi-preparative HPLC column (Luna C18, 10 micron, 10 mm × 250 mm) and eluted with 23:77 (v:v) acetonitrile:water (0.1% trifluoroacetic acid) at a flow rate of 10 mL min^−1. […] The final product [^18F]JHU37107 was then analyzed by analytical HPLC (Luna C18, 10 micron, 4.6 mm × 250 mm; mobile phase 23:77 (v:v) acetonitrile:water (0.1% trifluoroacetic acid), flow rate of 3 mL min^−1; tR = 6.4 min) using a UV detector at 254 nm to determine the radiochemical purity (>95%) and specific radioactivity (152–188 GBq μmol^−1 (4100–5070 mCi μmol^−1)) at the time synthesis ended. […]

[8] = biological target: T1, hM4Di; test: [18F]JHU37107 PET in a monkey expressing hM4Di in the right amygdala; type: in vivo, rhesus monkey (Macaca mulatta); parameters: expressed in transfected cells; host or cells: rhesus monkey (Macaca mulatta) right amygdala, lentivirus-transduced neurons
Description: Lentivirus expressing an hM4Di-CFP fusion protein under an hSyn promoter[11] with a titer of >10^9 infectious particles was loaded into a 100 µL glass syringe (Hamilton Co., MA). The 31-gauge needle of the syringe was sheathed with a silica capillary (450 µm OD) to create a step 1 mm from the base of the aperture. The syringe was mounted in a Nanomite pump (Harvard Apparatus, Cambridge, MA). The needle was lowered through the incision in the dura mater to each of the pre-calculated target sites and 10 or 20 µL was infused at a rate of 1 µL min^−1. Each monkey received a total of between 10 and 12 injections (for a total injection volume of 120–240 µL). Post-infusion, the needle was left in situ for 10 min after each injection to allow pressure from the infusate to dissipate. The needle was then slowly removed. At the completion of the injection series the soft tissues were sutured together in anatomical layers.
[^18F]JHU37107 was prepared via the no-carrier-added ^18F-fluorination using an FDG Nuclear Interface module (Muenster, Germany). Briefly, 4 mg precursor (8-chloro-11-(4-ethylpiperazin-1-yl)-5H-dibenzo[b,e][1,4]diazepin-2-ol) and 8 mg tris(acetonitrile)cyclopentadienylruthenium(II)hexafluorophosphate (STREM, Boston, MA) were dissolved in ethanol (0.3 mL), the solution was heated at 85 °C for 25 min and evaporated to dryness under a stream of argon gas. The residue was dissolved in DMSO (0.5 mL) and acetonitrile (0.5 mL) and the solution was added to a dry complex of [^18F]fluoride and 9 mg 1,3-bis(2,6-di-i-propylphenyl)-2-chloroimidazolium chloride (STREM). The reaction mixture was heated at 130 °C for 30 min, diluted with mixture of 0.5 mL acetonitrile, 0.5 mL water and 0.03 mL TFA and injected onto a semi-preparative HPLC column (Luna C18, 10 micron, 10 mm × 250 mm) and eluted with 23:77 (v:v) acetonitrile:water (0.1% trifluoroacetic acid) at a flow rate of 10 mL min^−1. The radioactive peak corresponding to [^18F]JHU37107 (tR = 9.9 min) was collected in a reservoir containing 50 mL of water and 3 mL aq 8.4% NaHCO3 solution. The diluted product was loaded onto a solid phase extraction cartridge (Waters Oasis HLB plus light) and rinsed with 10 mL sterile saline. The product was eluted with 1000 µL of ethanol through a sterile 0.2 μm filter into a sterile, pyrogen-free vial and 10 mL saline was added through the same filter. The final product [^18F]JHU37107 was then analyzed by analytical HPLC (Luna C18, 10 micron, 4.6 mm × 250 mm; mobile phase 23:77 (v:v) acetonitrile:water (0.1% trifluoroacetic acid), flow rate of 3 mL min^−1; tR = 6.4 min) using a UV detector at 254 nm to determine the radiochemical purity (>95%) and specific radioactivity (152–188 GBq μmol^−1 (4100–5070 mCi μmol^−1)) at the time synthesis ended.
All macaque studies were acquired dynamically on the Focus 220 PET scanner (Siemens Medical Solutions, Knoxville, TN). The Focus 220 is a dedicated pre-clinical scanner with a transaxial FOV of 19 cm and an axial FOV of 7.5 cm. Image resolution is <2 mm within the central 5 cm FOV.
After initial evaluation the monkey was sedated with ketamine (10 mg kg^−1) followed by ketoprofen (as an analgesic) and glycopyrrolate (for salvia reduction), all weight dependent IM injections. The monkey would then be placed in the supine position, intubated with a tracheal tube. […] The monkey was always monitored while anesthetized. […]

[9] = Radiometabolite analysis of [18F]JHU37107 in monkey plasma / whole blood (radio-HPLC); type: in vivo, rhesus monkey (Macaca mulatta)
Description: To determine the arterial input function for the radiotracers injected in rhesus monkeys radioligand concentrations in the arterial plasma were corrected by the unchanged parent fraction. […] Blood samples were immediately sampled for gamma counting, and plasma harvested by centrifugation for gamma counting and radio-HPLC analysis. The unchanged plasma parent fractions were determined by radio-HPLC on an X-terra® C18 column (10 µm, 7.8 mm × 300 mm, Waters Corp., Milford, MA), and eluted with MeOH:H2O:Et3N (80:20:0.1; by volume) at an isocratic flow rate of 4.0 mL min^−1. Eluates were monitored with an in-line flow-through NaI(Tl) scintillation detector (Bioscan). Data were stored and analyzed on a PC using the software “Bio-ChromeLite”. The collection of data for each radiochromatogram was decay corrected according to its respective HPLC injection time. Plasma free fraction was determined according to our previous methods.

T2 sequence (P08183 whole entry): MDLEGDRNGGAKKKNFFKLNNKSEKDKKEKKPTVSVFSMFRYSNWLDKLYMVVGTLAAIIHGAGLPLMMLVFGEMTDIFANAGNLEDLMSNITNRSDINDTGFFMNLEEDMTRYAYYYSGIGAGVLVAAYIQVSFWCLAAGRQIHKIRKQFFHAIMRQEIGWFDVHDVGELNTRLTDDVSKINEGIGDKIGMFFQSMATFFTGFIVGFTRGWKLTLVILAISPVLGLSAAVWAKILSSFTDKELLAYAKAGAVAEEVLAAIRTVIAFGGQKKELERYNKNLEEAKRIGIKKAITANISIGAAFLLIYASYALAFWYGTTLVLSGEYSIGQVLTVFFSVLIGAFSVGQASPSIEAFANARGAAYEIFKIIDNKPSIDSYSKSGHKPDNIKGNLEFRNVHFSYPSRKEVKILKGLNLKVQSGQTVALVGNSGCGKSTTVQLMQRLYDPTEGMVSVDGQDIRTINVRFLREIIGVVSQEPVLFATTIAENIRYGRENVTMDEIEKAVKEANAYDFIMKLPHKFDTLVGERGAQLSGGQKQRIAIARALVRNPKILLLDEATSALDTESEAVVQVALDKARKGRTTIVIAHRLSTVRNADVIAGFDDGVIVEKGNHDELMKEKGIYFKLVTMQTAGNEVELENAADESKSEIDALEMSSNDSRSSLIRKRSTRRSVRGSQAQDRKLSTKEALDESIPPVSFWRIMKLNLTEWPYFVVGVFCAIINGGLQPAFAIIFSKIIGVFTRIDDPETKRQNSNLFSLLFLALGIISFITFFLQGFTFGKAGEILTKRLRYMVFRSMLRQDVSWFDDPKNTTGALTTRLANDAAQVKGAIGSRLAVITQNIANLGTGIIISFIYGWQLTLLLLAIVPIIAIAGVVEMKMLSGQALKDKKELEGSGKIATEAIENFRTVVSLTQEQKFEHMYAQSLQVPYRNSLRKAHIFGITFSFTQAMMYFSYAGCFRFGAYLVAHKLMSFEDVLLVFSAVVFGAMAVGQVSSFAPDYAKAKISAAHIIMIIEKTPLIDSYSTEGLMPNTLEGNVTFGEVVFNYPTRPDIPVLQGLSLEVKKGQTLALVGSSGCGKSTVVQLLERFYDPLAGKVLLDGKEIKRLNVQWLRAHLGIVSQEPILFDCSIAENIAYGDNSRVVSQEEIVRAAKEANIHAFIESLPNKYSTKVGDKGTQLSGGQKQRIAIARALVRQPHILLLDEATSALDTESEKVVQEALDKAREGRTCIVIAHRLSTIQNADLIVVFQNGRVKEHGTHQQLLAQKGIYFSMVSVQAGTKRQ

CN1CCN(C2=Nc3cc(Cl)ccc3Nc3ccccc32)CC1 [clozapine]
tritiated ligand binding in brain tissue, CPu [1]: 109.018 and 115.173 and 108.688 and 86.4656 and 88.6824 and 91.973
tritiated ligand binding in brain tissue, CTX [1]: 88.2005 and 122.029 and 119.221 and 97.205 and 89.8389 and 100.22
tritiated ligand binding in brain tissue, hM4Di [1]: 176.387 and 144.183 and 141.333 and 201.955 and 168.154 and 164.257
brain metabolic activity ([18F]FDG) [2]: did not produce any significant changes in brain glucose metabolism
brain metabolic activity ([18F]FDG) ([2]; listed as CLZ): did not show any significant changes in brain metabolic activity
functional response in HEK-293 cells lacking DREADDs [3]: Neither clozapine nor C21 produced detectable functional responses
functional response, BRET (Go-alpha-Rluc8, beta1, gamma2-mVenus), no DREADD ([3]; HEK-293 cells): did not show any functional response
functional response, GCaMP6f, no DREADD ([3]; HEK-293 cells): did not show any functional response
binding to opioid receptors [4]: does not
P-gp substrate [5]: none of these compounds is a substrate for P-gp
hM4Di activation measured as [35S]GTPgammaS binding [6]: induces significantly greater hM4Di activation

CCN1CCN(C2=Nc3cc(Cl)ccc3Nc3ccc([18F])cc32)CC1 [[^18F]JHU37107]
PET visualization of hM4Di [7]: permitted hM4Di visualization in both the AAV injection site as well as at known proximal and distal anatomical projection sites
pharmacokinetic properties [8]: favorable pharmacokinetic properties
PET labelling of hM4Di ([8]; hM4Di in right amygdala): able to directly label hM4Di receptors
parent radioactivity composition of plasma ([9]; in vitro monkey whole blood, 30 min incubation at room temperature): 49.7%
parent radioactivity composition of plasma ([9]; monkey plasma, 30 min after IV administration): 56%
parent radioactivity composition of plasma ([9]; monkey plasma, 180 min after IV administration): 24.2%
